Values of other authors in US20120093932A1, “TARGETED SUSTAINED-RELEASE MICROSPHERE OF VASCULAR OCCLUSIVE AGENT CONTAINING SODIUM ALGINATE AND SORAFENIB, PRODUCTION METHOD AND USE THEREOF” (Beijing Shengyiyao Science & Technology Development Co., …, priority 2009, published 2012).
One block for each molecule: values may come before it.

Key:
[1] = not given; remark: listed apart in the source
[2] = oral administration
[3] = oral single dose, solution containing 100 mg sorafenib
[4] = 400 mg orally twice a day; Phase I

Structure (SMILES): [O-][n+]1ccccc1 [pyridine N-Oxide]
role in vitro compared to sorafenib: plays a similar role to sorafenib

solubility in alcohol ([1]; alcohol): slightly soluble
solubility in aqueous solution ([1]; aqueous solution, becomes higher a little bit under strongly acid condition): low
solubility in polyethylene glycerol 400 ([1]; polyethylene glycerol 400): can be dissolved
Structure (SMILES): CNC(=O)c1cc(Oc2ccc(NC(=O)Nc3ccc(Cl)c(C(F)(F)F)c3)cc2)ccn1.Cc1ccc(S(=O)(=O)O)cc1 [sorafenib tosylate]

excreted as glucuronic acid metabolic products in urine [3]: 19%
excreted unchanged (faeces) ([3]; within 14 days): 15%
sorafenib excreted in the faeces ([3]; within 14 days): 77%
Structure (SMILES): CNC(=O)c1cc(Oc2ccc(NC(=O)Nc3ccc(Cl)c(C(F)(F)F)c3)cc2)ccn1 [sorafenib, 4-{4-[3-(4-chloro-3-trifluoro-phenyl)-ureido]-phenoxyl}-pyridine-2-carboxylic methylamine]
side effects: diarrhea [2]: 58%
side effects: gastrointestinal response [2]: 95%
side effects: indigestion accompanied by appetite loss [2]: 47%
side effects: nausea [2]: 30%
side effects: vomiting [2]: 24%
tolerability and effectiveness [4]: tolerated and effective
